Experimental data taken from patent US20180289655A1, “Methods and Compositions for the Intravenous Administration of Fumarates for the Treatment of Neurological Diseases” (Biogen MA Inc., priority 2015, published 2018).
Structures can show the parent of a compound that is named as a salt.

Key:
Nrf2 target genes = experiment: qRT-PCR of Nrf2 target genes, statements over all tested genes; assay type: in vivo, C57BL/6 mice
Description: For RNA preparation, frozen tissues were placed in 2 mL RNAse-free 96-well blocks with 1.5 mL QIAzol Lysis Reagent (QIAgen) and a 3.2 mm stainless steel bead (BioSpec Products, Bartlesville, Okla.). Tissues were disrupted for four cycles of 45 seconds in a Mini-Beadbeater (Biospec Products). RNA was extracted with chloroform and the aqueous phase was mixed with an equal volume of 70% ethanol. Extracted RNA was applied to RNeasy 96 plates and purified by the spin method according to the manufacturer's protocol (RNeasy 96 Universal Tissue Protocol, QIAgen, Hilden Germany).
Samples were reverse-transcribed into cDNA according to the manufacturer protocols using the High Capacity cDNA Reverse Transcription Kit (Life Technologies, Carlsbad, Calif.) and analyzed by qRT-PCR. Mouse target gene primers and 6-FAM™ dye-labeled TaqMan® MGB™ probes (Life Technologies) were used. Reactions containing 100 ng of cDNA, 900 nM of each primer, and 250 nM TaqMan probes were cycled on a QuantStudio 12 k-flex system (Life Technologies) once for 10 minutes at 95° C., followed by 40 cycles of 95° C. for 10 seconds and 60° C. for 1 minute. All samples were measured in triplicate with Gapdh as a normalizing gene. Taqman primer/probe sets from Life Technologies included: Akr1b8 (Mm00484314_m1); Gapdh (Mm03302249_g1); Gclc (Mm00802655_m1); Hmox1 (Mm00516005_m1); Nqo1 (Mm01253561_m1); and Osgin1 (Mm00660947_m1). Comparative CT method was used to calculate fold changes and samples were normalized relative to time-matched vehicle control.
At the 10-minute time point, 4 animals from each group were sacrificed, with plasma and tissues (brain, jejunum and kidney) collected to determine MMF exposure. Two hours after dosing, the remaining 4 animals were sacrificed, and plasma and tissues were collected. Tissue samples from the 2-hour time point were divided, with half of each sample used for MMF exposure analysis, and half for RNA extraction and qRT-PCR to evaluate the expression of Nrf2 target genes.
Ten minutes after dosing, 4 animals from each group were sacrificed, and plasma and tissues (brain, kidney, jejunum and spleen) were collected to quantify MMF exposure levels, as well as whole blood to perform CBC. Two hours post-dose, another 4 animals from each group were sacrificed, and plasma, whole blood, and tissues were collected. Tissue samples from the 2-hour time point were split, with half of each sample used for MMF exposure analysis, and half for RNA extraction/qRT-PCR to evaluate the expression of Nrf2 target genes. Six hours after dosing, the last 4 animals from each group were sacrificed, and whole blood and tissues were collected.
A CBC with differential panel was performed at 10 minutes post-last dose via facial vein bleeding, and at 2 hours after the last dose, pharmacodynamic Nrf2 transcriptional responses were analyzed in tissues from the same animals. Histopathology was also performed on regions of the tail in a pilot toxicology study.

[1] = 24-hour equilibrium solubility of DMF in water; assay type: physicochemical; settings: thermodynamic from solid
Description: Samples were then filtrated at the measuring temperatures through a 0.2 μm filter unit, and the concentrations of the filtrate were determined using HPLC. The solids in equilibrium were confirmed, by FT-Raman technique, to be the same form as the starting material.

[2] = Solution stability of DMF in aqueous solution (HPLC); assay type: physicochemical; parameters: DMF assay: unit not given here
Description: Solution stability studies were conducted using 0.2 mg/ml concentration solutions, which were achieved by mixing equal volumes of the stock solution and individual study media. […] Samples stored at 37° C. or ambient temperature were pulled at predetermined time points, and analyzed by HPLC.

[3] = Solubility of DMF in 20% Captisol; assay type: physicochemical; settings: aqueous with cosolvent or surfactant or cyclodextrin, thermodynamic from solid, room temperature (heated at 50° C., cooled, filtered)
Description: The preparations were heated at 50° C. for 5-10 min, followed by cooled to room temperature.

[4] = Study 3, DMF IV 30 mg/kg once daily x5, 2 hours after dosing
[5] = SGF (without pepsin), 0.2 mg/ml, initial
[6] = SGF (without pepsin), 37° C., 24 hr
[7] = SGF (without pepsin), ambient temperature, 24 hr
[8] = SGF (without pepsin), ambient temperature, 48 hr
[9] = SGF (without pepsin), ambient temperature, 72 hr
[10] = SIF (without pancreatin), 0.2 mg/ml, initial
[11] = SIF (without pancreatin), 37° C., 24 hr
[12] = SIF (without pancreatin), ambient temperature, 24 hr
[13] = SIF (without pancreatin), ambient temperature, 48 hr
[14] = SIF (without pancreatin), ambient temperature, 72 hr
[15] = Water, ambient temperature, 24 hr
[16] = Water, ambient temperature, 48 hr
[17] = Water, ambient temperature, 72 hr
[18] = pH 2 Citrate Buffer, 0.2 mg/ml, initial
[19] = pH 2 Citrate Buffer, 37° C., 24 hr
[20] = pH 2 Citrate Buffer, ambient temperature, 24 hr
[21] = pH 2 Citrate Buffer, ambient temperature, 48 hr
[22] = pH 2 Citrate Buffer, ambient temperature, 72 hr
[23] = pH 4 Citrate Buffer, 0.2 mg/ml, initial
[24] = pH 4 Citrate Buffer, 37° C., 24 hr
[25] = pH 4 Citrate Buffer, ambient temperature, 24 hr
[26] = pH 4 Citrate Buffer, ambient temperature, 48 hr
[27] = pH 4 Citrate Buffer, ambient temperature, 72 hr
[28] = pH 6 Citrate Buffer, 0.2 mg/ml, initial
[29] = pH 6 Citrate Buffer, 37° C., 24 hr
[30] = pH 6 Citrate Buffer, ambient temperature, 24 hr
[31] = pH 6 Citrate Buffer, ambient temperature, 48 hr
[32] = pH 6 Citrate Buffer, ambient temperature, 72 hr
[33] = pH 8 Borate Buffer, 0.2 mg/ml, initial
[34] = pH 8 Borate Buffer, 37° C., 24 hr
[35] = pH 8 Borate Buffer, ambient temperature, 24 hr
[36] = pH 10 Borate Buffer, 0.2 mg/ml, initial
[37] = pH 10 Borate Buffer, 37° C., 24 hr
[38] = pH 10 Borate Buffer, ambient temperature, 24 hr

With COC(=O)/C=C/C(=O)OC [DMF, dimethyl fumarate] the “Changes in gene expression, jejunum” value (Nrf2 target genes; Study 1, DMF IV 17.5 mg/kg, 2 hours) was “No significant changes in gene expression”, the “Changes in transcript levels, kidney” value (Nrf2 target genes; Study 2, DMF IV 30 mg/kg, 2 hours) was “No significant changes” and the “Genes significantly increased, brain” value (Nrf2 target genes; [4]) was “significant increase was observed in brain Hmox1, Osgin1, and Gclc levels”. For the same molecule, the “Genes significantly increased, kidney and jejunum” value (Nrf2 target genes; [4]) was “Significant increases were also observed in Akr1b8, Nqo1, and Osgin1 levels”, the “Other transcripts in tissues analyzed” value (Nrf2 target genes; Study 3, DMF IV 30 mg/kg once daily x5, 2 hours post-last dose) was “generally unaffected” and the solubility at 24 h ([1]; 20 ° C., 24 hours) was 2700 µg/mL. The solubility at 24 h ([1]; 35 ° C., 24 hours) was 3500 µg/mL, the solubility at 24 h ([1]; 50 ° C., 24 hours) was 5500 µg/mL and the solubility at 24 h ([1]; ambient temperature) was 2700 µg/mL. The “Stability of DMF in solution at higher pH” value ([2]; 37° C., aqueous media) was “decreased rapidly as the solution pH went above 7”, the “pH of maximum stability of DMF in solution” value ([2]; 37° C., aqueous media) was roughly 4 and the DMF area % [2, 5] was 99.3 area %. The DMF assay [2, 5] was 102.9, the DMF area % [2, 6] was 92.2 area % and the DMF assay [2, 6] was 91.1. The DMF area % [2, 7] was 96.6 area %, the DMF assay [2, 7] was “(95.2)” and the DMF area % [2, 8] was 95.6 area %. For the same molecule, the DMF assay [2, 8] was “(92.5)”, the DMF area % [2, 9] was 95.4 area % and the DMF assay [2, 9] was “(91.6)”. It also gave a DMF area % [2, 10] of 99.3 area %, a DMF assay [2, 10] of 100.9 and a DMF area % [2, 11] of 29.5 area %. For the same molecule, the DMF assay [2, 11] was 27.8, the DMF area % [2, 12] was 68.7 area % and the DMF assay [2, 12] was “(68.3)”. The DMF area % [2, 13] was 64.5 area %, the DMF assay [2, 13] was “(60.3)” and the DMF area % [2, 14] was 62.2 area %. For the same molecule, the DMF assay [2, 14] was “(59.0)”, the DMF area % ([2]; Water, 0.2 mg/ml, initial) was 96.6 area % and the DMF assay ([2]; Water, 0.2 mg/ml, initial) was 98.9. It also gave a DMF area % ([2]; Water, 37° C., 24 hr) of 77.4 area %, a DMF assay ([2]; Water, 37° C., 24 hr) of 73.9 and a DMF area % [2, 15] of 84.8 area %. The DMF assay [2, 15] was “(81.6)”, the DMF area % [2, 16] was 85.1 area % and the DMF assay [2, 16] was “(80.2)”. The DMF area % [2, 17] was 83.5 area %, the DMF assay [2, 17] was “(79.3)” and the DMF area % [2, 18] was 99.5 area %. It also gave a DMF assay [2, 18] of 101.0, a DMF area % [2, 19] of 97.9 area % and a DMF assay [2, 19] of 96.0. The DMF area % [2, 20] was 99.1 area %, the DMF assay [2, 20] was “(94.7)” and the DMF area % [2, 21] was 98.9 area %. The DMF assay [2, 21] was “(93.2)”, the DMF area % [2, 22] was 98.7 area % and the DMF assay [2, 22] was “(92.0)”. It also gave a DMF area % [2, 23] of 99.8 area %, a DMF assay [2, 23] of 101.9 and a DMF area % [2, 24] of 99.6 area %. The DMF assay [2, 24] was 100.4, the DMF area % [2, 25] was 99.6 area % and the DMF assay [2, 25] was “(97.2)”. The DMF area % [2, 26] was 99.2 area %, the DMF assay [2, 26] was “(98.5)” and the DMF area % [2, 27] was 99.6 area %. For the same molecule, the DMF assay [2, 27] was “(93.9)”, the DMF area % [2, 28] was 100 area % and the DMF assay [2, 28] was 101.4. For the same molecule, the DMF area % [2, 29] was 92.6 area %, the DMF assay [2, 29] was 91.8 and the DMF area % [2, 30] was 97.5 area %. For the same molecule, the DMF assay [2, 30] was “(90.7)”, the DMF area % [2, 31] was 95.3 area % and the DMF assay [2, 31] was “(92.5)”. The DMF area % [2, 32] was 96.1 area %, the DMF assay [2, 32] was “(88.4)” and the DMF area % [2, 33] was 98.6 area %. It also gave a DMF assay [2, 33] of 101.0, a DMF area % [2, 34] of 17.2 area % and a DMF assay [2, 34] of 15.9. The DMF area % [2, 35] was 46.5 area %, the DMF assay [2, 35] was “(44.8)” and the DMF area % [2, 36] was 37.1 area %. The DMF assay [2, 36] was 36.1, the DMF area % [2, 37] was 0/0 area % and the DMF assay [2, 37] was 0/0. For the same molecule, the DMF area % [2, 38] was 0/0 area %, the DMF assay [2, 38] was 0/0 and the “Degradation of DMF before initial HPLC determination” value ([2]; pH 10 borate buffer solution) was “more than half of DMF degraded before an initial concentration was able to be determined”. The solubility [3] was 4110 µg/mL.
